Earlier results, collected in US20260140098A1, “METHOD FOR TREATING PLASMA SAMPLE CONTAINING (7aS,2'S)-2-OXO-CLOPIDOGREL AND METHOD FOR DETERMINING THE SAME” (CHENGDU SHIBEIKANG BIOMEDICAL TECHNOLOGY CO., LTD., priority 2021, published 2026).

Legend:
[1] = molecular target: CYP2B6 (Homo sapiens, UniProt P20813); details: by CYP2B6; cited from earlier work
[2] = molecular target: CYP2C19 (Homo sapiens, UniProt P33261); details: by CYP2C19; cited from earlier work
[3] = molecular target: CYP1A2 (Homo sapiens, UniProt P05177); details: by CYP1A2; cited from earlier work
Chain of CYP1A2 (P05177 whole entry): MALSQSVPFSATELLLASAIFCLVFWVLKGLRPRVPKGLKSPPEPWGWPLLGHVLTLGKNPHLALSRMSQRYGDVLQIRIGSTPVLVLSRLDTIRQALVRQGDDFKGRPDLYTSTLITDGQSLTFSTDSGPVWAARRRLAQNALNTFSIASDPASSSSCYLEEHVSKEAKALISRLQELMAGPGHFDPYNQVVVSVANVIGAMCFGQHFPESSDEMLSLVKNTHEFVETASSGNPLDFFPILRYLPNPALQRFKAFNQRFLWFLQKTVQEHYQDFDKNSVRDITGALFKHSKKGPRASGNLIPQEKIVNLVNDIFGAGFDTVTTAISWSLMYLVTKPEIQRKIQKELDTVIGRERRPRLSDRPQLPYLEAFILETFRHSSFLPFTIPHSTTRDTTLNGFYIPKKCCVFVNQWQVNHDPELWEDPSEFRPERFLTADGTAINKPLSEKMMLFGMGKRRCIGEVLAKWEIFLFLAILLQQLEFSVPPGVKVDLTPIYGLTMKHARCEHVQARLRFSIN

Chain of CYP2C19 (P33261 whole entry): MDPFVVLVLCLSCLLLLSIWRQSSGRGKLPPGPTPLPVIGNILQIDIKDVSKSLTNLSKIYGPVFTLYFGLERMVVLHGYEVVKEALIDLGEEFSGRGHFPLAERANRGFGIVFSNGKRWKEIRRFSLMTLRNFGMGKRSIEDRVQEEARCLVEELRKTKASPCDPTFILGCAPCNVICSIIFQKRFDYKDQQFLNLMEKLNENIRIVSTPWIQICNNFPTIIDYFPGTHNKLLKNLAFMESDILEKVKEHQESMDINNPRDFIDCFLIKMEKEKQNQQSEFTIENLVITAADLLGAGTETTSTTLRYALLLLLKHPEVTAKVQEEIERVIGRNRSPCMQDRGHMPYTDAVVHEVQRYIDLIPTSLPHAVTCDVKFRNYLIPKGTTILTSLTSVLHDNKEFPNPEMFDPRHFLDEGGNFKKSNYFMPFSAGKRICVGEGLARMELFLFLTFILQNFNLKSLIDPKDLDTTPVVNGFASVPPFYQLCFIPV
Chain of CYP2B6 (P20813 whole entry): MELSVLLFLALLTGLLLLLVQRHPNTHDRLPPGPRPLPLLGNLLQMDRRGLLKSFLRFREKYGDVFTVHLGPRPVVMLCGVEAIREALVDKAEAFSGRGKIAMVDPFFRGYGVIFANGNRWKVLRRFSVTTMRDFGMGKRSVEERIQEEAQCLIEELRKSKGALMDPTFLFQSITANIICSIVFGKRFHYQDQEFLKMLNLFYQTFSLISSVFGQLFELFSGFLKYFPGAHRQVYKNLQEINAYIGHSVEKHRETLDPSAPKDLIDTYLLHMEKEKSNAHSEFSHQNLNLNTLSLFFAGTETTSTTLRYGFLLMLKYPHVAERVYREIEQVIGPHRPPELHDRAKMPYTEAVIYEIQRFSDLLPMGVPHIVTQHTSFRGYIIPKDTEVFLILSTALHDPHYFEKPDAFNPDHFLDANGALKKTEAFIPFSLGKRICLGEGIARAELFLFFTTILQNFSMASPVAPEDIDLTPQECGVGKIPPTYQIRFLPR

COC(=O)[C@H](c1ccccc1Cl)N1CCc2sccc2C1 [clopidogrel]
Share of Phase I metabolism into inactive 2-oxo-clopidogrel [1]: ~19% | Share of Phase I metabolism into inactive 2-oxo-clopidogrel [2]: ~45% | Share of Phase I metabolism into inactive 2-oxo-clopidogrel [3]: ~36%
